Results: patent US6316482A, “Benzamide derivatives having a vasopressin antagonistic activity” (Fujisawa Pharmaceutical Co., Ltd., priority 1996, dated 2001)
Structures can show the parent of a compound that is named as a salt.

Experiments:
human V2 receptor = human V2 receptor (Homo sapiens, UniProt P30518); test: Vasopressin 2 (V2) receptor binding; settings: membranes of CHO cells expressing human V2 receptor; competition vs 0.5 nM 3H-vasopressin; 2 hours at 22° C.; pH 7.4
[1] = molecular target: Vasopressin 1 (V1) receptor (Homo sapiens, UniProt P37288); test: Vasopressin 1 (V1) receptor binding; settings: platelet membranes from normal subjects; competition vs 1.5 nM 3H-vasopressin; 15 minutes at 30° C.; pH 7.4
Vasopressin 1 (V1) receptor, sequence (P37288 whole entry): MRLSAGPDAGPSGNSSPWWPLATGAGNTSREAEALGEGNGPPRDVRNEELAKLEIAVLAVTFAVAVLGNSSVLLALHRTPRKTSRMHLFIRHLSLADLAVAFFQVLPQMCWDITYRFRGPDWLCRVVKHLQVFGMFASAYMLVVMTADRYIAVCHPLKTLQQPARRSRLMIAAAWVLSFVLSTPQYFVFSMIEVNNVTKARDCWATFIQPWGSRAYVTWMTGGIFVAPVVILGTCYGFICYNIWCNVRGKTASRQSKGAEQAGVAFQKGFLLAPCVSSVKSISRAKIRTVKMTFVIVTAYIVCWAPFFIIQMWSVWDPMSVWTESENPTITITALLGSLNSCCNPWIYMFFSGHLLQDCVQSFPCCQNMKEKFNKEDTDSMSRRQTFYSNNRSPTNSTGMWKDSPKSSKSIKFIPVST

human V2 receptor, sequence (P30518 whole entry): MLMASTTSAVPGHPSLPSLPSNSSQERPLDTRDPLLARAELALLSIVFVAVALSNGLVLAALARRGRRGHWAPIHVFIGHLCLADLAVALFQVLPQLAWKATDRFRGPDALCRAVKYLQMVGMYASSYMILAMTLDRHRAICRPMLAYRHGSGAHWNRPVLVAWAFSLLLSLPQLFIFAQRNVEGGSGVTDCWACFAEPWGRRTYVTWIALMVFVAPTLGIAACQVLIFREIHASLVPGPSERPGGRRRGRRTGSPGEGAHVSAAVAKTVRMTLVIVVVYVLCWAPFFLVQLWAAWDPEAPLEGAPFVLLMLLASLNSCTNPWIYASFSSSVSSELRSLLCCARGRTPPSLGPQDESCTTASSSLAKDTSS

| IC50 (human V2 receptor) [nM] | IC50 [1] [nM] | Structure (SMILES) |
| --- | --- | --- |
| 460 | 1.5 | COc1cc(C(=O)N(C)c2ccc(C)cc2OCCCCCC(=O)N2CCN(C)CC2)ccc1NC(=O)c1cccc2[nH]c(CN)nc12 [Example 39-27, 4-(2-Aminomethyl-1H-benzimidazol-4-yl)carbonylamino-3-methoxy-N-methyl-N-[4-methyl-2-[5-(4-methylpiperazin-1-yl)carbonylpent-1-yloxy]phenyl]benzamidetrihydrochloride] |
| – | 0.7 | COc1cc(C(=O)N(C)c2ccc(C)cc2OCCCCCC(=O)N2CCN(C)CC2)ccc1C(=O)Nc1cccc2[nH]c(C)nc12 [Example 115-71, 3-Methoxy-N-methyl-4-[2-mehtyl-1H-benzimidazol-4-yl]carbamoyl-N-[4-methyl-2-[5-(4-methylpiperazin-1-yl)-carbonylpent-1-yloxy]phenyl]benzamide dihydrochloride] |
| – | 4.5 | COc1cc(C(=O)N(C)c2ccc(C)cc2OCCCCCC(=O)N2CCN(C)CC2)ccc1C(=O)Nc1cccc2[nH]c(CN3CCN(C)CC3)nc12 [Example 115-81, 3-Methoxy-N-methyl-N-[4-methyl-2-[5-(4-methylpiperazin-1-yl)carbonylpent-1-yloxy]phenyl]-4-[2-[(4-methyl-piperazin-1-yl)methyl]-1H-benzimidazol-4-yl]-carbamoylbenzamide trihydrochloride] |
| 380 | < 1 | COc1cc(C(=O)N(C)c2ccc(C)cc2OCCCCCC(=O)N2CCN(C)CC2)ccc1NC(=O)c1cccc2[nH]c(CO)nc12 [Example 39-35, 4-(2-Hydroxymethyl-1H-benzimidazol-4-yl)carbonylamino-3-methoxy-N-methyl-N-[4-methyl-2-[5-(4-methylpiperazin-1-yl)carbonylpent-1-yloxy]phenyl]benzamide dihydrochloride] |
